# Results published in patent US7767659B2, “Synthesis of naturally occurring ecteinascidins and related compounds” (Pharma Mar, S.A., priority 2002, dated 2010).
# Read-outs that look alike come from different tables or passages of the source.
# Tests used:
# A-549 = assay: cells; conditions: Homo sapiens, A549, 48 h
# Procedure, shortened: (§1)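 Colorimetric SRB read (490 nm) on triplicate wells after 48 h at 37 °C, 5% CO2. Dose range 10 to 10^−8 μg/ml; 5×10^3 cells/well pre-attached 18 h.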
# HT-29 = assay: cells; conditions: Homo sapiens, HT-29, 48 h; for CC50: read-out: HT29 LC50
# Procedure, shortened: as §1
# LoVo = assay: cells; conditions: Homo sapiens, LoVo, 48 h
# Procedure, shortened: as §1
# DU-145 = assay: Inhibition of cells growth by colorimetric assay (SRB); conditions: Homo sapiens, DU-145, 48 h; for CC50: read-out: DU145 LC50
# Procedure, shortened: as §1
# HeLa-APL = assay: as above; conditions: Homo sapiens, 48 h
# Procedure, shortened: as §1
# HeLa = assay: as above; conditions: Homo sapiens, HeLa, 48 h
# Procedure, shortened: as §1
# IGROV-1 = assay: as above; conditions: Homo sapiens, IGROV-1, 48 h
# Procedure, shortened: as §1
# IGROV-ET = assay: as above; conditions: Homo sapiens, 48 h
# Procedure, shortened: as §1
# K-562 = assay: as above; conditions: Homo sapiens, K562, 48 h
# Procedure, shortened: as §1
# LNCaP = assay: as above; conditions: Homo sapiens, LNCaP, 48 h
# Procedure, shortened: as §1
# LoVo-Dox = assay: as above; conditions: Homo sapiens, 48 h; for CC50: read-out: LOVO-DOX LC50
# Procedure, shortened: as §1
# PANC-1 = assay: as above; conditions: Homo sapiens, PANC-1, 48 h; for CC50: read-out: PANC-1 LC50
# Procedure, shortened: as §1
# SK-BR-3 = assay: as above; conditions: Homo sapiens, SK-BR-3, 48 h
# Procedure, shortened: as §1
# SK-MEL-28 = assay: as above; conditions: Homo sapiens, SK-MEL-28, 48 h
# Procedure, shortened: as §1
compound,measurement,setting,value
COC1=C(C)C(=O)C2=C(C1=O)C1C3[C@@H]4SCC(=O)C(=O)OC[C@@H](c5c6c(c(C)c(OC(C)=O)c54)OCO6)N3[C@@H](O)[C@H](C2)N1C (some centres unmarked) [Et-594-quinone],GI50,A-549; read-out: A549 GI50,2350 nM
same,CC50,A-549; read-out: A549 LC50,10300 nM
same,IC (TGI),A-549; read-out: A549 TGI,4910 nM
same,GI50,HT-29; read-out: HT29 GI50,653 nM
same,CC50,HT-29,16300 nM
same,IC (TGI),HT-29; read-out: HT29 TGI,1710 nM
same,GI50,LoVo; read-out: LOVO GI50,759 nM
same,CC50,LoVo; read-out: LOVO LC50,16300 nM
same,IC (TGI),LoVo; read-out: LOVO TGI,2910 nM
same,GI50,DU-145; read-out: DU145 GI50,1990 nM
same,CC50,DU-145,14600 nM
same,IC (TGI),DU-145; read-out: DU145 TGI,5390 nM
same,GI50,HeLa-APL; read-out: HELA-APL GI50,398 nM
same,CC50,HeLa-APL; read-out: HELA-APL LC50,1140 nM
same,IC (TGI),HeLa-APL; read-out: HELA-APL TGI,674 nM
same,GI50,HeLa; read-out: HELA GI50,343 nM
same,CC50,HeLa; read-out: HELA LC50,1120 nM
same,IC (TGI),HeLa; read-out: HELA TGI,620 nM
same,GI50,IGROV-1; read-out: IGROV GI50,452 nM
same,CC50,IGROV-1; read-out: IGROV LC50,3640 nM
same,IC (TGI),IGROV-1; read-out: IGROV TGI,958 nM
same,GI50,IGROV-ET; read-out: IGROV-ET GI50,4370 nM
same,CC50,IGROV-ET; read-out: IGROV-ET LC50,16300 nM
same,IC (TGI),IGROV-ET; read-out: IGROV-ET TGI,9110 nM
same,GI50,K-562; read-out: K562 GI50,137 nM
same,CC50,K-562; read-out: K562 LC50,1620 nM
same,IC (TGI),K-562; read-out: K562 TGI,478 nM
same,GI50,LNCaP; read-out: LNCAP GI50,274 nM
same,CC50,LNCaP; read-out: LNCAP LC50,901 nM
same,IC (TGI),LNCaP; read-out: LNCAP TGI,498 nM
same,GI50,LoVo-Dox; read-out: LOVO-DOX GI50,6270 nM
same,CC50,LoVo-Dox,16300 nM
same,IC (TGI),LoVo-Dox; read-out: LOVO-DOX TGI,13100 nM
same,GI50,PANC-1; read-out: PANC-1 GI50,1580 nM
same,CC50,PANC-1,14900 nM
same,IC (TGI),PANC-1; read-out: PANC-1 TGI,4860 nM
same,GI50,SK-BR-3; read-out: SK-BR3 GI50,302 nM
same,CC50,SK-BR-3; read-out: SK-BR3 LC50,1160 nM
same,IC (TGI),SK-BR-3; read-out: SK-BR3 TGI,593 nM
same,GI50,SK-MEL-28; read-out: MEL-28 GI50,413 nM
same,CC50,SK-MEL-28; read-out: MEL-28 LC50,1320 nM
same,IC (TGI),SK-MEL-28; read-out: MEL-28 TGI,738 nM
C=CCN1[C@@H]2c3c(cc(C)c(OC)c3O)C[C@H]1[C@H](C#N)N1C2[C@@H]2SC[C@]3(NCCc4cc(OC(=O)OC(C)(C)C)c(OC)cc43)C(=O)OC[C@H]1c1c3c(c(C)c(OC(=O)CCCCCCC)c12)OCO3 (some centres unmarked) [compound 48],GI50,A-549; read-out: A549 GI50,8100 nM
same,CC50,A-549; read-out: A549 LC50,10200 nM
same,IC (TGI),A-549; read-out: A549 TGI,10200 nM
same,GI50,HT-29; read-out: HT29 GI50,6710 nM
same,CC50,HT-29,10200 nM
same,IC (TGI),HT-29; read-out: HT29 TGI,10200 nM
same,GI50,LoVo; read-out: LOVO GI50,4010 nM
same,CC50,LoVo; read-out: LOVO LC50,10200 nM
same,IC (TGI),LoVo; read-out: LOVO TGI,10200 nM
same,GI50,DU-145; read-out: DU145 GI50,2550 nM
same,CC50,DU-145,10200 nM
same,IC (TGI),DU-145; read-out: DU145 TGI,6260 nM
same,GI50,HeLa-APL; read-out: HELA-APL GI50,1870 nM
same,CC50,HeLa-APL; read-out: HELA-APL LC50,7870 nM
same,IC (TGI),HeLa-APL; read-out: HELA-APL TGI,3830 nM
same,GI50,HeLa; read-out: HELA GI50,2170 nM
same,CC50,HeLa; read-out: HELA LC50,10200 nM
same,IC (TGI),HeLa; read-out: HELA TGI,5110 nM
same,GI50,IGROV-1; read-out: IGROV GI50,3520 nM
same,CC50,IGROV-1; read-out: IGROV LC50,10200 nM
same,IC (TGI),IGROV-1; read-out: IGROV TGI,10200 nM
same,GI50,IGROV-ET; read-out: IGROV-ET GI50,3720 nM
same,CC50,IGROV-ET; read-out: IGROV-ET LC50,10200 nM
same,IC (TGI),IGROV-ET; read-out: IGROV-ET TGI,10200 nM
same,GI50,K-562; read-out: K562 GI50,515 nM
same,CC50,K-562; read-out: K562 LC50,10200 nM
same,IC (TGI),K-562; read-out: K562 TGI,2730 nM
same,GI50,LNCaP; read-out: LNCAP GI50,1670 nM
same,CC50,LNCaP; read-out: LNCAP LC50,6310 nM
same,IC (TGI),LNCaP; read-out: LNCAP TGI,3240 nM
same,GI50,LoVo-Dox; read-out: LOVO-DOX GI50,10200 nM
same,CC50,LoVo-Dox,10200 nM
same,IC (TGI),LoVo-Dox; read-out: LOVO-DOX TGI,10200 nM
same,GI50,PANC-1; read-out: PANC-1 GI50,4420 nM
same,CC50,PANC-1,10200 nM
same,IC (TGI),PANC-1; read-out: PANC-1 TGI,10200 nM
same,GI50,SK-BR-3; read-out: SK-BR3 GI50,682 nM
same,CC50,SK-BR-3; read-out: SK-BR3 LC50,10200 nM
same,IC (TGI),SK-BR-3; read-out: SK-BR3 TGI,4000 nM
same,GI50,SK-MEL-28; read-out: MEL-28 GI50,3190 nM
same,CC50,SK-MEL-28; read-out: MEL-28 LC50,10200 nM
same,IC (TGI),SK-MEL-28; read-out: MEL-28 TGI,10200 nM
C=CCN1[C@@H]2c3c(cc(C)c(OC)c3O)C[C@H]1[C@H](C#N)N1C2[C@@H]2SC[C@H](NC(=O)c3cc4ccccc4oc3=O)C(=O)OC[C@H]1c1c3c(c(C)c(OC(C)=O)c12)OCO3 (some centres unmarked) [compound 28],GI50,A-549; read-out: GI50 A549,52.5 nM
same,CC50,A-549; read-out: LC50 A549,2270 nM
same,IC (TGI),A-549; read-out: TGI A549,163 nM
same,GI50,HT-29; read-out: GI50 HT29,76.5 nM
same,IC (TGI),HT-29; read-out: TGI HT29,2050 nM
same,GI50,LoVo; read-out: GI50 LOVO,66.3 nM
same,CC50,LoVo; read-out: LC50 LOVO,687 nM
same,IC (TGI),LoVo; read-out: TGI LOVO,212 nM
same,GI50,DU-145; read-out: GI50 DU145,35.8 nM
same,IC (TGI),DU-145; read-out: TGI DU145,1270 nM
same,GI50,HeLa-APL; read-out: GI50 HELA-APL,55.9 nM
same,CC50,HeLa-APL; read-out: LC50 HELA-APL,682 nM
same,IC (TGI),HeLa-APL; read-out: TGI HELA-APL,130 nM
same,GI50,HeLa; read-out: GI50 HELA,38.6 nM
same,CC50,HeLa; read-out: LC50 HELA,289 nM
same,IC (TGI),HeLa; read-out: TGI HELA,75.5 nM
same,GI50,IGROV-1; read-out: GI50 IGROV,49 nM
same,CC50,IGROV-1; read-out: LC50 IGROV,1570 nM
same,IC (TGI),IGROV-1; read-out: TGI IGROV,155 nM
same,GI50,IGROV-ET; read-out: GI50 IGROV-ET,138 nM
same,CC50,IGROV-ET; read-out: LC50 IGROV-ET,898 nM
same,IC (TGI),IGROV-ET; read-out: TGI IGROV-ET,352 nM
same,GI50,K-562; read-out: GI50 K562,28.3 nM
same,CC50,K-562; read-out: LC50 K562,2690 nM
same,IC (TGI),K-562; read-out: TGI K562,135 nM
same,GI50,LNCaP; read-out: GI50 LNCAP,22.9 nM
same,CC50,LNCaP; read-out: LC50 LNCAP,111 nM
same,IC (TGI),LNCaP; read-out: TGI LNCAP,50.4 nM
same,GI50,LoVo-Dox; read-out: GI50 LOVO-DOX,362 nM
same,IC (TGI),LoVo-Dox; read-out: TGI LOVO-DOX,1220 nM
same,GI50,PANC-1; read-out: GI50 PANC-1,59.2 nM
same,IC (TGI),PANC-1; read-out: TGI PANC-1,197 nM
same,GI50,SK-BR-3; read-out: GI50 SK-BR3,47.3 nM
same,CC50,SK-BR-3; read-out: LC50 SK-BR3,1220 nM
same,IC (TGI),SK-BR-3; read-out: TGI SK-BR3,164 nM
same,GI50,SK-MEL-28; read-out: GI50 MEL-28,56.8 nM
same,CC50,SK-MEL-28; read-out: LC50 MEL-28,692 nM
same,IC (TGI),SK-MEL-28; read-out: TGI MEL-28,135 nM
